Data on eleven compounds can be found in patent US8815872B2, “Macrocyclics pyrimidines as aurora kinase inhibitors” (Merck Patent GmbH, priority 2008, dated 2014).

Like-named read-outs stand apart in the source and are kept apart here.

The conditions of data set [1]: snar bond.
In a further data set the target is T1, Aurora A (Homo sapiens, UniProt O14965).
T1 construct: N-terminal GST fusion with full length Aurora A (1-403 amino acids); purchased Carna Biosciences 05-101
T1 sequence (O14965 1-403): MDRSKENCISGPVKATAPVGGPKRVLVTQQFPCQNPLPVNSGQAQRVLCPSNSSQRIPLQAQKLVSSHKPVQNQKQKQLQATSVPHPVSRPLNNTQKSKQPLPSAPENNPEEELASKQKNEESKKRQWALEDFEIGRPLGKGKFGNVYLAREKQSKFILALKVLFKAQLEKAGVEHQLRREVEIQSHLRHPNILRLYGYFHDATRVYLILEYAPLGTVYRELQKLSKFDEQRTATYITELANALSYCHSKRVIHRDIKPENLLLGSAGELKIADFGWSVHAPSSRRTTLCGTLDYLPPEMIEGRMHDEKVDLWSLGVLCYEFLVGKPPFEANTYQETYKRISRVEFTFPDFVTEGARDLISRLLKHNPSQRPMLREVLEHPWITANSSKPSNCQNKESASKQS
In words: Aurora A enzyme assay (Caliper LC3000 mobility shift). In kind it is biochemical. In outline: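 Full-length N-terminal GST-Aurora A (0.067 ng/µl) with 15 µM ATP and 1 µM FITC-LRRASLG peptide in 100 mM HEPES pH 7.5, 1 mM MgCl2, 1 mM DTT, 0.015% Brij-35, 90 min at 25 °C, EDTA-stopped. Off-chip mobility shift measured percent substrate conversion; IC50 from sigmoidal dose-response fit.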

The next data set concerns the target Aurora B (Homo sapiens, UniProt Q96GD4). The data set can be described thus: Aurora B enzyme assay (Caliper). In kind it is biochemical. In outline:
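Kinase activity was measured by microfluidic mobility-shift separation of phosphorylated and unphosphorylated fluorescently labelled substrate peptide at the end of the enzymatic reaction. Product and substrate were resolved by their charge difference and detected by fluorescence.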

A further data set concerns A549. In words: Cellular activity A549. In kind it is cell-based. The following applies: Homo sapiens. In outline: (§1)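 Cultured cells were exposed to compounds at various concentrations for roughly one hour to one week, enough to induce cell death or inhibit migration. Viable cells remaining after treatment were then counted.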
The subject of another data set is MiaPaca2. The data set can be described thus: Cellular activity MiaPaca2. In kind it is cell-based. The following applies: Homo sapiens, MIA PaCa-2. The method in brief: as §1
Data set [2] has as its target kinases (not incl. Aurora). In words: Kinase inhibition profile (not incl. Aurora). The following applies: at 1 μM; hit means >79% inhibition. In kind it is biochemical. How it is done:
(§2) The Aurora and other kinase assays described here were performed on two Caliper Life Sciences systems, the LC3000 and the Desktop Profiler. These provide data on enzyme activity via measurement of the relative amounts of phosphorylated or unphosphorylated fluorescently labelled substrate peptide at the end of an enzymatic reaction. These different states of peptide are resolved by applying a potential difference across the sample. The presence of a charged phosphate group on the product (as opposed to the substrate) causes a different peptide mobility between the two peptides. This is visualized by excitation of a fluorescent label on the substrate and product peptides and represented as peaks within the analysis software.
The Desktop Profiler utilizes the same principal as the LC 3000 for calculating percentage conversion of a substrate to product. Caliper Life Sciences provided proprietary flash frozen pre-made 384 well plates containing selected kinases. Each column in the 384 well plate contained a particular selected kinase. A second plate, the ‘substrate plate’ contained a mix of fluorescently labeled peptide substrate and ATP. These were arranged in columns so that transfer for substrate plate to enzyme plate provided the correct enzyme with the correct substrate/ATP concentration.
Compounds were added to a thawed enzyme plate in the desired format, in single concentrations. Reactions were initiated by transfer of the ubstrate/ATP mix from the substrate plate. The enzyme plate was incubated for 90 mins at 25 °C. The reaction was stopped by addition of […] of Stop Buffer (100 mM HEPES pH 7.5, 0.015% Brij-35, 10 mM EDTA (Sigma, E7889)).
Plates were read in a manner identical to that of the LC3000, and the ratio between substrate and product peaks provided the activity of the enzyme in that well. This was best represented by a plate heat map which colors each well by percent inhibition as compared to positive and negative controls (no inhibitors and no ATP respectively).

A further data set addresses T2, FAK(h) (Homo sapiens, UniProt Q05397).
T2 construct: purchased Caliper Life Sciences
In words: Inhibition of other kinases IC50 (Table 2). In kind it is biochemical. How it is done:
as §2

The target in the next data set is T3, IRAK4(h) (Homo sapiens, UniProt Q9NWZ3).
T3 construct: purchased Caliper Life Sciences
T3 sequence (Q9NWZ3 1-460): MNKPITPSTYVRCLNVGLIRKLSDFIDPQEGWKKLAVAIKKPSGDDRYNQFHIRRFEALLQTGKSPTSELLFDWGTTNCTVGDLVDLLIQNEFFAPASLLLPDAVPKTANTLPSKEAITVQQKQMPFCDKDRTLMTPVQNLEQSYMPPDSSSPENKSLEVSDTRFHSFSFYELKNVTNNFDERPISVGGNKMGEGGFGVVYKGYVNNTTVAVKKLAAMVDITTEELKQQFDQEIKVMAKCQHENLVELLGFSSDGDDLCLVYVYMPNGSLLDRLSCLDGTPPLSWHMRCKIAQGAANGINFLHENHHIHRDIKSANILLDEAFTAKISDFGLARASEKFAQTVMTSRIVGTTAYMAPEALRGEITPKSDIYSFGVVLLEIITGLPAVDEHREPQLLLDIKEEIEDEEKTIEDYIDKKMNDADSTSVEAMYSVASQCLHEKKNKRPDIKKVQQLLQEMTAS
The data set can be described thus: Inhibition of other kinases IC50 (Table 2). In kind it is biochemical. On the procedure:
as §2

Another data set concerns the target T4, Pyk2(h) (Homo sapiens, UniProt Q14289).
T4 construct: purchased Caliper Life Sciences
In words: Inhibition of other kinases IC50 (Table 2). In kind it is biochemical. On the procedure: as §2

For a further data set, the target named is T5, Ret(h) (Homo sapiens, UniProt P07949).
T5 construct: purchased Caliper Life Sciences
T5 sequence (P07949 29-1114): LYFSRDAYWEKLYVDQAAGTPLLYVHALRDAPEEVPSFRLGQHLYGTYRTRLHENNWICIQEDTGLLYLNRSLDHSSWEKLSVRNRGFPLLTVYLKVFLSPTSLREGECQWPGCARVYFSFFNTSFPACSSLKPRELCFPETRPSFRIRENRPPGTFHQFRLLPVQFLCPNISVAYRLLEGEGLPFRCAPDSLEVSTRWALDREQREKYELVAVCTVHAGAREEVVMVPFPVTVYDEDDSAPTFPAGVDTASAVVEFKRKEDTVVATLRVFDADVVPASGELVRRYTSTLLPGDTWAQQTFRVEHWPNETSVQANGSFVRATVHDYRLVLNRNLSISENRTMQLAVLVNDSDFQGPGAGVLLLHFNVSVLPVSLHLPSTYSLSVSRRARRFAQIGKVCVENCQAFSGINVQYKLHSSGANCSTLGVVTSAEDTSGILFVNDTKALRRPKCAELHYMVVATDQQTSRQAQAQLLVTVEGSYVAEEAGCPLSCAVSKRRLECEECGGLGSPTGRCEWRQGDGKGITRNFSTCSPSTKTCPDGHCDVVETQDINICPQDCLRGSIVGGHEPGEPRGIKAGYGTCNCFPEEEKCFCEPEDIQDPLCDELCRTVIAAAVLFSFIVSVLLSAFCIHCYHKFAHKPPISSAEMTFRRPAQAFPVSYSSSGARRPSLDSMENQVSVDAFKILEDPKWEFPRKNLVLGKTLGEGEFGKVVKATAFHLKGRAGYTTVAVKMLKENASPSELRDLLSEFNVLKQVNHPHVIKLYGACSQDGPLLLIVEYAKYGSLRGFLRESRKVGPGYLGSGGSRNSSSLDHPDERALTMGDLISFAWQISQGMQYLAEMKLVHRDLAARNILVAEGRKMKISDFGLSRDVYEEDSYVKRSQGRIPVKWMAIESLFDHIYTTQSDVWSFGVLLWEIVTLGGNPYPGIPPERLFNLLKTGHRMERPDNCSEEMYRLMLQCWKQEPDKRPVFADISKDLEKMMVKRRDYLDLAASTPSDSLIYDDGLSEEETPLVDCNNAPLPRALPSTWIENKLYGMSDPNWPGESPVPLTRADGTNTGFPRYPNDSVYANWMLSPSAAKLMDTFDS
In words: Inhibition of other kinases IC50 (Table 2). In kind it is biochemical. On the procedure: as §2

For the next data set, the target named is T6, Tie2(h) (Homo sapiens, UniProt Q02763).
T6 construct: purchased Caliper Life Sciences
T6 sequence (Q02763 23-1124): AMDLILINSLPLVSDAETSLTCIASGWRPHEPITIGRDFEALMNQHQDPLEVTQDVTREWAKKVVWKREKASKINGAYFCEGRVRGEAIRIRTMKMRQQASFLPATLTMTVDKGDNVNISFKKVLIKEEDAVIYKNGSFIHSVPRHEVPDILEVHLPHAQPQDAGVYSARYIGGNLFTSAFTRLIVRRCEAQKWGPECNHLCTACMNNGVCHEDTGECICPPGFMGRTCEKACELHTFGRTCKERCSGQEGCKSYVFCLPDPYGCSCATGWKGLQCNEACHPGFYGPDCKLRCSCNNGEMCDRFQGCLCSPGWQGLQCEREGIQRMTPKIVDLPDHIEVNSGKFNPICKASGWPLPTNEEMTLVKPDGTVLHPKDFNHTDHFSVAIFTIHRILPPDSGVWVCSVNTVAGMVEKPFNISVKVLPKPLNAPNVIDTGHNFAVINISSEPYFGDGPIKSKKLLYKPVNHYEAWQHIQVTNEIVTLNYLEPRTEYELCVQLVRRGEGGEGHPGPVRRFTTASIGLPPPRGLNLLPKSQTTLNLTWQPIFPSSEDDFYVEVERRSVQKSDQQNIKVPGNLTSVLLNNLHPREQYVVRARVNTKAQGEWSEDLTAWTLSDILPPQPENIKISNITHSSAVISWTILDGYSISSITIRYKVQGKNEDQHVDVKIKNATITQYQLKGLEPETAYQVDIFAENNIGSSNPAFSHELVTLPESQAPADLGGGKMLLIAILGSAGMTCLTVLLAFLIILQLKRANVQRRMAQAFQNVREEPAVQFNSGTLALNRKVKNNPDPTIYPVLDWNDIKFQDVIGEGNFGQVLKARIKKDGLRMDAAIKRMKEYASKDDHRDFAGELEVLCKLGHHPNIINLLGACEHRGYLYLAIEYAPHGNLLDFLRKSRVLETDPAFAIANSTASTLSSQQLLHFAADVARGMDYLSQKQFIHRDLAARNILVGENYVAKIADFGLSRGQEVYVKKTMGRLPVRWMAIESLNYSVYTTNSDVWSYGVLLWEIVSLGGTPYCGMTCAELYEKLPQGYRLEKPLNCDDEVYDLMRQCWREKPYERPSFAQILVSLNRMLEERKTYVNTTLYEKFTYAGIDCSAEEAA
In words: Inhibition of other kinases IC50 (Table 2). In kind it is biochemical. How it is done: as §2

Chain of Aurora B (Q96GD4 whole entry): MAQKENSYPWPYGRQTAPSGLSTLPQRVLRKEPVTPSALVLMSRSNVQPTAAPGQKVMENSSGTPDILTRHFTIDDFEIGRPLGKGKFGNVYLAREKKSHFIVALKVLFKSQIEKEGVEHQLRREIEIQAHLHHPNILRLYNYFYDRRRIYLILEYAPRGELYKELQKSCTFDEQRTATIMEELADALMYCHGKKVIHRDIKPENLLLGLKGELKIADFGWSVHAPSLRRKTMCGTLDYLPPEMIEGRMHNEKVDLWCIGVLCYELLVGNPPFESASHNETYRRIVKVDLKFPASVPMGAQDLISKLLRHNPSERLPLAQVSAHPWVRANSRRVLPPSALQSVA
T2 sequence (Q05397 whole entry): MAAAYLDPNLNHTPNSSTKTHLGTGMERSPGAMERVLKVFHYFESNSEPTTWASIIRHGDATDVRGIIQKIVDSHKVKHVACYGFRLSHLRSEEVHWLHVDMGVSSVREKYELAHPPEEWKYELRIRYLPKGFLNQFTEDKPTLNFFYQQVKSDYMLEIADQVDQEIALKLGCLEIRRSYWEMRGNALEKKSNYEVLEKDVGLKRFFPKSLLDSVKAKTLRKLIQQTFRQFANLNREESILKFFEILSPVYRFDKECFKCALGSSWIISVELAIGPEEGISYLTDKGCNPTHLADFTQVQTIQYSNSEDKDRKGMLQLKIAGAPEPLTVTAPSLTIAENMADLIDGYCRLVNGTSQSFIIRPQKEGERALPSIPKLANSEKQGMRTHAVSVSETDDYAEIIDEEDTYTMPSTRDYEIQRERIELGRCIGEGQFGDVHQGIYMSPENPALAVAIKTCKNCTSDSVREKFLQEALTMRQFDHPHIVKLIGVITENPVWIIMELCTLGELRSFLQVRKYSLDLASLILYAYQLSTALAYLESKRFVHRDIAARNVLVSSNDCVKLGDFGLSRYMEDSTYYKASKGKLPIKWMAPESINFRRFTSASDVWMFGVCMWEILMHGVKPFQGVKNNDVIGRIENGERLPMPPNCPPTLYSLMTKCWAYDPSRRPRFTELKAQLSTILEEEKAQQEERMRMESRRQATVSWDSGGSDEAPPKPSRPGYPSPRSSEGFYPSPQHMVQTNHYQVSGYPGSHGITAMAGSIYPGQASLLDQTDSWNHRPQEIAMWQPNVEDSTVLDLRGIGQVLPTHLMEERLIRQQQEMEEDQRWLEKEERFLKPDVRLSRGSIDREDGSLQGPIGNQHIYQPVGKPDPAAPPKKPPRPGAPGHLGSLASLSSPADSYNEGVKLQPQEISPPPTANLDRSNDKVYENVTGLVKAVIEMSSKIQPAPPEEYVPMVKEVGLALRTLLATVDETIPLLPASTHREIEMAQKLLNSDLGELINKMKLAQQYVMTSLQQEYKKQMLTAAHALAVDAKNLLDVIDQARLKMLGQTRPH
T4 sequence (Q14289 whole entry): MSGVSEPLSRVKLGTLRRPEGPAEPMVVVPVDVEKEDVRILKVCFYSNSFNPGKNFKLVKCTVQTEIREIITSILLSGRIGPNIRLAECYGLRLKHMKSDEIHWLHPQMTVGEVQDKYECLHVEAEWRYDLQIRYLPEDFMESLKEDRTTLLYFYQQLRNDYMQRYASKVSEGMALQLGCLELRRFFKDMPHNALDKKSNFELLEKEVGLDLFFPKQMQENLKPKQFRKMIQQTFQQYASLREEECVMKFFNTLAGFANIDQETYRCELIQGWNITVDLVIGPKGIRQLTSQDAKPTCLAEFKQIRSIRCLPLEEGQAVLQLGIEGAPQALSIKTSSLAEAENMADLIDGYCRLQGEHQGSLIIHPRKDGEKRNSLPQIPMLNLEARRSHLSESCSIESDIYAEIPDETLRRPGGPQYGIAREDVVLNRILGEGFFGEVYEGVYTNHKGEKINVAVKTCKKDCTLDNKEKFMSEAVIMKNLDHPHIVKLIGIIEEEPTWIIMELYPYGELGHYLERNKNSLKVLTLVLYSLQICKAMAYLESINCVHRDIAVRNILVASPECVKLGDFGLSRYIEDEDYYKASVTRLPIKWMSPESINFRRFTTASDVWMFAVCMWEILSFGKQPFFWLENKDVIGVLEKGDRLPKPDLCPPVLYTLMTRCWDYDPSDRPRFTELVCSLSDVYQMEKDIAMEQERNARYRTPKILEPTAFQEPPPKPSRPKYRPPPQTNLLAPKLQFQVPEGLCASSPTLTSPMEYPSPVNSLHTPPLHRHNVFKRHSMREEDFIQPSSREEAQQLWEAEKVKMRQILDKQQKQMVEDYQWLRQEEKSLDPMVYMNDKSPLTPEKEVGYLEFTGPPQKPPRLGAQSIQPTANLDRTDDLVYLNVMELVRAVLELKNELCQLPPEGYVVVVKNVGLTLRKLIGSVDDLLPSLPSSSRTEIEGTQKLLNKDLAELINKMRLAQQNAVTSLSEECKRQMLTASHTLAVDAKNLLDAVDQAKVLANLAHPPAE

Consider `NC(=O)[C@H]1[C@@H]2CC3CNCCc4cccc(c4)Nc4ncc(F)c(n4)N[C@@H]1[C@@H]3C2` (stereo partly shown), for which the ring closure, yield of all isomers in data set [1] (from NC(=O)[C@H]1[C@@H]2CC(CNCCc3cccc(N)c3)[C@@H](C2)[C@H]1Nc1nc(Cl)ncc1F) was determined as 18.5%. Moreover, the IC50 fell in the range of 0.101 to 1 µM on Aurora A, 0.001 to 0.1 µM on Aurora B, 0.101 to 1 µM in the data set with A549 and 0.101 to 1 µM in the data set with MiaPaca2. Also, the “Kinase Inhibition Profile (not incl. Aurora) # kinases hit/# kinases tested” value in data set [2] was 1/53 at 1 μM.
On to `NC(=O)[C@H]1[C@@H]2CC3CNC(=O)Nc4cccc(c4)Nc4ncc(F)c(n4)N[C@@H]1[C@@H]3C2` (stereo partly shown), for which the ring closure, yield of all isomers in data set [1] (from NC(=O)[C@H]1[C@@H]2CC(CNC(=O)Nc3cccc(N)c3)[C@@H](C2)[C@H]1Nc1nc(Cl)ncc1F) amounted to 15.1%. Moreover, the IC50 was 0.101 to 1 µM on Aurora A, 0.101 to 1 µM at Aurora B, > 6.25 µM in the data set with A549 and 1 to 6.25 µM in the data set with MiaPaca2. The “Kinase Inhibition Profile (not incl. Aurora) # kinases hit/# kinases tested” value in [2] is listed as 1/76 at 1 μM.
With `CN1CCN(c2ccc3cc2COC(=O)N[C@@H]2C[C@@H]4C[C@H]2[C@@H](Nc2nc(ncc2F)N3)[C@H]4C(N)=O)CC1`, in data set [1] (from CN1CCN(c2ccc(N)cc2COC(=O)N[C@@H]2C[C@@H]3C[C@H]2[C@@H](Nc2nc(Cl)ncc2F)[C@H]3C(N)=O)CC1, HCl), the ring closure, yield of all isomers is 8.7%. In addition, the IC50 lay in the range of 0.001 to 0.1 µM on Aurora A, 0.001 to 0.1 µM against Aurora B, 0.101 to 1 µM with A549 and 0.101 to 1 µM in the data set on MiaPaca2.
For `NC(=O)[C@H]1[C@H]2C[C@H]3[C@H]1Nc1nc(ncc1F)Nc1cccc(c1)CNC(=O)N[C@@H]3C2`, the ring closure, yield of all isomers in [1] (from NC(=O)[C@H]1[C@H]2C[C@@H]([C@H]1Nc1nc(Cl)ncc1F)[C@H](NC(=O)NCc1cccc(N)c1)C2) worked out at 36.7%. Besides, the IC50 at Aurora A lay within 0.001 to 0.1 µM; against Aurora B, 0.001 to 0.1 µM; in the data set with A549, 1 to 6.25 µM; in the data set with MiaPaca2 it was 1 to 6.25 µM.
Consider `NC(=O)[C@H]1[C@H]2C[C@H]3[C@H]1Nc1nc(ncc1F)Nc1cccc(c1)CCS[C@@H]3C2` [Example 18], for which the IC50 on FAK(h) was in the range of 0.101 to 1 µM; at IRAK4(h), 0.001 to 0.1 µM; on Pyk2(h) it was 0.101 to 1 µM; at Ret(h) it was 1 to 6.25 µM; against Tie2(h), 1 to 6.25 µM.
The compound `NC(=O)[C@H]1[C@@H]2C[C@H]3CNS(=O)(=O)Cc4cccc(c4)Nc4ncc(F)c(n4)N[C@@H]1[C@@H]3C2` showed a ring closure, yield of all isomers in data set [1] (from NC(=O)[C@H]1[C@@H]2C[C@@H](CNS(=O)(=O)Cc3cccc(N)c3)[C@@H](C2)[C@H]1Nc1nc(Cl)ncc1F) of 6.3%. In addition, the IC50 on Aurora A was in the range of 0.001 to 0.1 µM; against Aurora B it was 0.101 to 1 µM; with A549, 1 to 6.25 µM; in the data set with MiaPaca2 it was 1 to 6.25 µM.
In [1] (from NC(=O)[C@H]1[C@H]2C[C@@H]([C@H]1Nc1nc(Cl)ncc1F)[C@H](NC(=O)OCc1cccc(N)c1)C2), `NC(=O)[C@H]1[C@H]2C[C@H]3[C@H]1Nc1nc(ncc1F)Nc1cccc(c1)COC(=O)N[C@@H]3C2` returned a ring closure, yield of all isomers of 3.3%. Further, the IC50 on Aurora A lay within 0.001 to 0.1 µM; against Aurora B, 0.001 to 0.1 µM; in the data set on A549, 1 to 6.25 µM; in the data set on MiaPaca2 it was 1 to 6.25 µM.
Compound `NC(=O)[C@H]1[C@@H]2CC3CNCc4cccc(c4)Nc4ncc(F)c(n4)N[C@@H]1[C@@H]3C2` (stereo partly shown) yielded a ring closure, yield of all isomers in data set [1] (from NC(=O)[C@H]1[C@@H]2CC(CNCc3cccc(N)c3)[C@@H](C2)[C@H]1Nc1nc(Cl)ncc1F) of 7.6%. Moreover, the IC50 on Aurora A lay within 0.101 to 1 µM; at Aurora B, 0.001 to 0.1 µM; in the data set on A549, 0.001 to 0.1 µM; in the data set on MiaPaca2 it was 0.001 to 0.1 µM. Further, the “Kinase Inhibition Profile (not incl. Aurora) # kinases hit/# kinases tested” value in data set [2] is given as 1/50 at 1 μM.
The compound `NC(=O)[C@H]1[C@@H]2C[C@H]3CNC(=O)Cn4cnc(c4)Nc4ncc(F)c(n4)N[C@@H]1[C@@H]3C2` yielded a ring closure, yield of all isomers in data set [1] (from NC(=O)[C@H]1[C@@H]2C[C@@H](CNC(=O)Cn3cnc([N+](=O)[O-])c3)[C@@H](C2)[C@H]1Nc1nc(Cl)ncc1F, 2 steps) of 46.6%. Moreover, the IC50 on Aurora A and against Aurora B was 1 to 6.25 µM each time.
Consider `CN1CCN(c2ccc3cc2CNC[C@@H]2C[C@@H]4C[C@H]2[C@@H](Nc2nc(ncc2F)N3)[C@H]4C(N)=O)CC1`, for which the ring closure, yield of all isomers in data set [1] (from CN1CCN(c2ccc(N)cc2CNC[C@@H]2C[C@@H]3C[C@H]2[C@@H](Nc2nc(Cl)ncc2F)[C@H]3C(N)=O)CC1, HCl) was found to be 24.9%. Also, the IC50 lay in the range of 0.101 to 1 µM on Aurora A and 0.001 to 0.1 µM against Aurora B.
In the case of `CN1CCN(c2ccc3cc2CC(=O)N[C@@H]2C[C@@H]4C[C@H]2[C@@H](Nc2nc(ncc2F)N3)[C@H]4C(N)=O)CC1`, in data set [1] (from CN1CCN(c2ccc(N)cc2CC(=O)N[C@@H]2C[C@@H]3C[C@H]2[C@@H](Nc2nc(Cl)ncc2F)[C@H]3C(N)=O)CC1), the ring closure, yield of all isomers amounted to 5.3%. Besides, the IC50 on Aurora A and against Aurora B was 0.001 to 0.1 µM throughout.
